From patent US20110082130A1 (LIGAND PHARMACEUTICALS, INC., priority 2006, published 2011)

Molecular target: T1, chimeric human H3 receptor (Homo sapiens, UniProt Q9Y5N1)
T1 construct: made in house; host or cells: Sf9 insect cells (baculovirus); P2 membrane preparation
Assay: Chimeric human H3 receptor screening GTP binding assay (inhibition of histamine-stimulated GTP-gamma35S binding, Example 8)
Format: biochemical
Conditions: 4 μM of the compound, 1 μM histamine, "†" in Ki of Table II, read-out: percent inhibition of the signal obtained with 1 μM histamine
Protocol: This Example illustrates a representative screening assay for evaluating inhibition of histamine-stimulated GTP-gamma^35S binding. Such GTP binding activity can be used to identify H3 antagonists and inverse agonists. A compound analyzed in this assay is referred to herein as a “test compound,” and the initial identification of antagonists and inverse agonists is performed using a test compound concentration of 4 μM.
Four independent baculoviral stocks (one directing the expression of the chimeric human H3 receptor and three directing the expression of each of the three subunits of a heterotrimeric G-protein) are used to infect a culture of Sf9 cells as described above. P2 membranes are prepared as described above, and are resuspended by Dounce homogenization (tight pestle) in GTP binding assay buffer (50 mM Tris pH 7.4, 120 mM NaCl, 5 mM MgCl2, 2 mM EGTA, 1 mg/ml BSA, 0.2 mg/ml bacitracin, 0.02 mg/ml aprotinin, 0.01 mg/ml saponin, 10 μM GDP) and added to assay tubes at a concentration of 35 μg protein/reaction tube. Non-radiolabeled test compounds are added to separate reactions at a concentration of 4 μM along with 1 μM histamine (agonist). Reactions are initiated by the addition of […] GTP-gamma^35S with a final assay volume of 0.20 ml.
After a 60-min incubation at room temperature, reactions are terminated by vacuum filtration over GF/C filters (pre-soaked in 50 mM Tris pH 7.4, 120 mM NaCl plus 0.1% BSA) followed by washing with ice-cold buffer (50 mM Tris pH 7.4, 120 mM NaCl). The amount of receptor-bound (and thereby membrane-bound) GTP-gamma^35S is determined by measuring the bound radioactivity, preferably by liquid scintillation spectrometry of the washed filters. Non-specific binding is determined using 10 uM GTP-gammaS and typically represents less than 5 percent of total binding. After subtraction of non-specific binding, data is expressed as percent inhibition of 1 μM histamine signal.
Neutral antagonists are those test compounds that reduce the histamine-stimulated GTP binding activity towards, but not below, baseline levels. In contrast, in the absence of added histamine, inverse agonists reduce the GTP binding activity of the receptor-containing membranes below baseline. Any test compound that elevates GTP binding activity above baseline in the absence of added histamine in this assay is defined as having agonist activity.

T1 sequence (Q9Y5N1 with tags, fused parts or gaps): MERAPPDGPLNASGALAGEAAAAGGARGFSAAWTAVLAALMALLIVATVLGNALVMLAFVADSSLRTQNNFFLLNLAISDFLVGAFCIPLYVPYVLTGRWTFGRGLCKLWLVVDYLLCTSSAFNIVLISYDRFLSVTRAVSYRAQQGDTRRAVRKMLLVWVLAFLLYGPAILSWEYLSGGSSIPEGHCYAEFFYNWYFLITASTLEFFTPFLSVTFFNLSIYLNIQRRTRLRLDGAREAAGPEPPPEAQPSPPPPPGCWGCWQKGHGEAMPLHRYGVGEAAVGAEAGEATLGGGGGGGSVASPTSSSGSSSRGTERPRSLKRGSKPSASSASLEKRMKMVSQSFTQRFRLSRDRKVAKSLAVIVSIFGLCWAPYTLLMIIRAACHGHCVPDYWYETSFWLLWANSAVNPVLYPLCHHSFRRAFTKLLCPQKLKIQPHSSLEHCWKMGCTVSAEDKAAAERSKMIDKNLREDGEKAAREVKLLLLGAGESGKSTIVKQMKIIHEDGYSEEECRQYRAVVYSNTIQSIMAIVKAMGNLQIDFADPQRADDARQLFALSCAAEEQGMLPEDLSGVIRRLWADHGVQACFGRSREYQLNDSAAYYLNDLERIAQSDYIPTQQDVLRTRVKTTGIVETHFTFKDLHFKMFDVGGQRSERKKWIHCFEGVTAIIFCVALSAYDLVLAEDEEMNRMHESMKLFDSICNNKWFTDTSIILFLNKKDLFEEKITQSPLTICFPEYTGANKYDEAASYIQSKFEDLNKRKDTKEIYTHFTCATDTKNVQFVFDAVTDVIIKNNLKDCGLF

Inhibition at 4 µM, ≥ 90%:
O=C(CN1CCc2cc(-c3ccccc3)ccc2C1)N1CCN(C2CCCCC2)CC1 [Compound 400, 2-[2-(4-cyclohexylpiperazin-1-yl)-2-oxoethyl]-6-phenyl-1,2,3,4-tetrahydroisoquinoline]
Cc1ccc(F)c(-c2ccc3c(c2)CCN(CC(=O)N2CCN(C4CCCC4)CC2)C3)c1 [Compound 424, 2-[2-(4-cyclopentylpiperazin-1-yl)-2-oxoethyl]-6-(2-fluoro-5-methylphenyl)-1,2,3,4-tetrahydroisoquinoline]
O=C(CN1CCc2cc(-c3cccc(F)c3)ccc2C1)N1CCN(C2CCCCC2)CC1 [Compound 412, 2-[2-(4-cyclohexylpiperazin-1-yl)-2-oxoethyl]-6-(3-fluorophenyl)-1,2,3,4-tetrahydroisoquinoline]
CCCCc1ccc(-c2ccc3c(c2)CCN(CC(=O)N2CCN(C4CCCCC4)CC2)C3)cc1 [Compound 453, 6-(4-butylphenyl)-2-[2-(4-cyclohexylpiperazin-1-yl)-2-oxoethyl]-1,2,3,4-tetrahydroisoquinoline]
CC(C)c1ccc(-c2ccc3c(c2)CCN(CC(=O)N2CCN(C4CCCC4)CC2)C3)cc1 [Compound 444, 2-[2-(4-cyclopentylpiperazin-1-yl)-2-oxoethyl]-6-(4-isopropylphenyl)-1,2,3,4-tetrahydroisoquinoline]
Cc1cc(-c2ccc3c(c2)CCN(CC(=O)N2CCN(C4CCCCC4)CC2)C3)ccc1F [Compound 431, 2-[2-(4-cyclohexylpiperazin-1-yl)-2-oxoethyl]-6-(4-fluoro-3-methylphenyl)-1,2,3,4-tetrahydroisoquinoline]
O=C(CN1CCc2nc(-c3ccccc3Oc3ccccc3)sc2C1)N1CCN(C2CCC2)CC1 [Compound 345, 5-[2-(4-cyclobutylpiperazin-1-yl)-2-oxoethyl]-2-(2-phenoxyphenyl)-4,5,6,7-tetrahydro[1,3] thiazolo[5,4-c]pyridine]
CCCc1ccc(-c2ccc3c(c2)CCN(CC(=O)N2CCN(C(C)C)CC2)C3)cc1 [Compound 466, 2-[2-(4-isopropylpiperazin-1-yl)-2-oxoethyl]-6-(4-propylphenyl)-1,2,3,4-tetrahydroisoquinoline]
O=C(CN1CCc2cc(-c3ccc(F)cc3)ccc2C1)N1CCN(C2CCC2)CC1 [Compound 407, 2-[2-(4-cyclobutylpiperazin-1-yl)-2-oxoethyl]-6-(4-fluorophenyl)-1,2,3,4-tetrahydroisoquinoline]
CC(C)c1ccc(-c2ccc3c(c2)CCN(CC(=O)N2CCN(C(C)C)CC2)C3)cc1 [Compound 446, 6-(4-isopropylphenyl)-2-[2-(4-isopropylpiperazin-1-yl)-2-oxoethyl]-1,2,3,4-tetrahydroisoquinoline]
CCCc1ccc(-c2ccc3c(c2)CCN(CC(=O)N2CCN(C4CCCC4)CC2)C3)cc1 [Compound 464, 2-[2-(4-cyclopentylpiperazin-1-yl)-2-oxoethyl]-6-(4-propylphenyl)-1,2,3,4-tetrahydroisoquinoline]
O=C(CN1CCc2cc(-c3ccc(F)cc3)ccc2C1)N1CCN(C2CCCCC2)CC1 [Compound 409, 2-[2-(4-cyclohexylpiperazin-1-yl)-2-oxoethyl]-6-(4-fluorophenyl)-1,2,3,4-tetrahydroisoquinoline]
CCc1ccc(-c2ccc3c(c2)CCN(CC(=O)N2CCN(C4CCCCC4)CC2)C3)cc1 [Compound 461, 2-[2-(4-cyclohexylpiperazin-1-yl)-2-oxoethyl]-6-(4-ethylphenyl)-1,2,3,4-tetrahydroisoquinoline]

Same assay, conditions: Table II "Ki", symbol †, 4 μM of the compound, 1 μM histamine, read-out: percent inhibition of the signal obtained with 1 μM histamine

Inhibition at 4 µM, ≥ 90%:
O=C(CN1CCc2cc(-c3ccc(F)c(F)c3)ccc2C1)N1CCN(C2CCC2)CC1 [Compound 589, 2-[2-(4-cyclobutylpiperazin-1-yl)-2-oxoethyl]-6-(3,4-difluorophenyl)-1,2,3,4-tetrahydroisoquinoline]
O=C(CN1CCc2cc(-c3ccc(F)cc3F)ccc2C1)N1CCN(C2CCC2)CC1 [Compound 586, 2-[2-(4-cyclobutylpiperazin-1-yl)-2-oxoethyl]-6-(2,4-difluorophenyl)-1,2,3,4-tetrahydroisoquinoline]
O=C(CN1CCc2cc(-c3cccc(F)c3F)ccc2C1)N1CCN(C2CCCC2)CC1 [Compound 600, 2-[2-(4-cyclopentylpiperazin-1-yl)-2-oxoethyl]-6-(2,3-difluorophenyl)-1,2,3,4-tetrahydroisoquinoline]
CC1CCCC1N1C[C@@H]2C[C@H]1CN2C(=O)CN1CCc2cc(-c3cncnc3)ccc2C1 (stereo in doubt) [Compound 615, 2-{2-[(1S,4S)-5-(2-methylcyclopentyl)-2,5-diazabicyclo[2.2.1]hept-2-yl]-2-oxoethyl}-6-pyrimidin-5-yl-1,2,3,4-tetrahydroisoquinoline]
CC(C)N1CCN(C(=O)CN2CCc3cc(-c4cccc(N(C)C)c4)ccc3C2)CC1 [Compound 539, 3-{2-[2-(4-isopropylpiperazin-1-yl)-2-oxoethyl]-1,2,3,4-tetrahydroisoquinolin-6-yl}-N,N-dimethylaniline]
CC(C)N1CCN(C(=O)CN2CCc3cc(-c4ccccc4Oc4ccccc4)ccc3C2)CC1 [Compound 578, 2-[2-(4-isopropylpiperazin-1-yl)-2-oxoethyl]-6-(2-phenoxyphenyl)-1,2,3,4-tetrahydroisoquinoline]
COc1ccc(OC)c(-c2ccc3c(c2)CCN(CC(=O)N2CCN(C4CCC4)CC2)C3)c1 [Compound 559, 2-[2-(4-cyclobutylpiperazin-1-yl)-2-oxoethyl]-6-(2,5-dimethoxyphenyl)-1,2,3,4-tetrahydroisoquinoline]
CN(C)c1ccc(-c2ccc3c(c2)CCN(CC(=O)N2CCN(C4CCCCC4)CC2)C3)cc1 [Compound 534, 4-{2-[2-(4-cyclohexylpiperazin-1-yl)-2-oxoethyl]-1,2,3,4-tetrahydroisoquinolin-6-yl}-N,N-dimethylaniline]
O=C(CN1CCc2cc(-c3cncnc3)ccc2C1)N1CCN(C2CCOCC2)CC1 [Compound 621, 2-{2-oxo-2-[4-(tetrahydro-2H-pyran-4-yl)piperazin-1-yl]ethyl}-6-pyrimidin-5-yl-1,2,3,4-tetrahydroisoquinoline]
COc1ccc(F)cc1-c1ccc2c(c1)CCN(CC(=O)N1CCN(C3CCC3)CC1)C2 [Compound 570, 2-[2-(4-cyclobutylpiperazin-1-yl)-2-oxoethyl]-6-(5-fluoro-2-methoxyphenyl)-1,2,3,4-tetrahydroisoquinoline]
CCCOCCNc1ccc2c(n1)CCN(CC(=O)N1CCN(C3CCC3)CC1)C2 [Compound 669, 6-[2-(4-cyclobutylpiperazin-1-yl)-2-oxoethyl]-N-(2-propoxyethyl)-5,6,7,8-tetrahydro-1,6-naphthyridin-2-amine]
COc1ccc(OC)c(-c2ccc3c(c2)CCN(CC(=O)N2CCN(C(C)C)CC2)C3)c1 [Compound 562, 6-(2,5-dimethoxyphenyl)-2-[2-(4-isopropylpiperazin-1-yl)-2-oxoethyl]-1,2,3,4-tetrahydroisoquinoline]
COc1ccc(OC)c(-c2ccc3c(c2)CCN(CC(=O)N2CCN(C4CCCCC4)CC2)C3)c1 [Compound 561, 2-[2-(4-cyclohexylpiperazin-1-yl)-2-oxoethyl]-6-(2,5-dimethoxyphenyl)-1,2,3,4-tetrahydroisquinoline]
COc1ccc(-c2ccc3c(c2)CCN(CC(=O)N2CCN(C4CCCC4)CC2)C3)c(C)c1 [Compound 549, 2-[2-(4-cyclopentylpiperazin-1-yl)-2-oxoethyl]-6-(4-methoxy-2-methylphenyl)-1,2,3,4-tetrahydroisoquinoline]
CC(C)N1CCN(C(=O)CN2CCc3cc(-c4cccc(F)c4F)ccc3C2)CC1 [Compound 602, 6-(2,3-difluorophenyl)-2-[2-(4-isopropylpiperazin-1-yl)-2-oxoethyl]-1,2,3,4-tetrahydroisoquinoline]
O=C(CN1CCc2cc(-c3cc(F)cc(F)c3)ccc2C1)N1CCN(C2CCCC2)CC1 [Compound 597, 2-[2-(4-cyclopentylpiperazin-1-yl)-2-oxoethyl]-6-(3,5-difluorophenyl)-1,2,3,4-tetrahydroisoquinoline]
